Reference: doi:10.1101/208439v1 (biorxiv, 2017)

Assays:
Assay in all cases: biochemical
[1] = molecular target: DNMT3a (Homo sapiens, UniProt Q9Y6K1)
[2] = molecular target: PRMT3 (Homo sapiens, UniProt O60678)
[3] = molecular target: DNMT3b/3L (Homo sapiens, UniProt Q9UBC3)
[4] = molecular target: T1, SMYD1 (Homo sapiens, UniProt Q8NB12)
T1 sequence (Q8NB12 1-490): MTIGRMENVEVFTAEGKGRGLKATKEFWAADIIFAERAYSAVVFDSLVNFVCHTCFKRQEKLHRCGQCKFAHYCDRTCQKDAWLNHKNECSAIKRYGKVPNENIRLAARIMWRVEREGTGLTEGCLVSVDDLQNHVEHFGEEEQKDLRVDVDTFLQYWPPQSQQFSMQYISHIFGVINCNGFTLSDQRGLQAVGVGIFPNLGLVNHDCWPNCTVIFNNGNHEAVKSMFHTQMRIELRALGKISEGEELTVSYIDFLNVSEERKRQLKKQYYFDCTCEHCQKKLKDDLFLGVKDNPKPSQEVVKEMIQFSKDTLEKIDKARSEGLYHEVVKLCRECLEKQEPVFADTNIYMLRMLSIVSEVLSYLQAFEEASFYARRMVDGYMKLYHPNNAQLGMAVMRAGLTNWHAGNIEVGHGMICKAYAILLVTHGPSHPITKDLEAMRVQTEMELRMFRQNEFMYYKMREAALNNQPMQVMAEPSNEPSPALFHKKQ

[5] = molecular target: T2, GLP (Homo sapiens, UniProt Q9H9B1)
T2 construct: gene EHMT1
T2 sequence (Q9H9B1 1-1298): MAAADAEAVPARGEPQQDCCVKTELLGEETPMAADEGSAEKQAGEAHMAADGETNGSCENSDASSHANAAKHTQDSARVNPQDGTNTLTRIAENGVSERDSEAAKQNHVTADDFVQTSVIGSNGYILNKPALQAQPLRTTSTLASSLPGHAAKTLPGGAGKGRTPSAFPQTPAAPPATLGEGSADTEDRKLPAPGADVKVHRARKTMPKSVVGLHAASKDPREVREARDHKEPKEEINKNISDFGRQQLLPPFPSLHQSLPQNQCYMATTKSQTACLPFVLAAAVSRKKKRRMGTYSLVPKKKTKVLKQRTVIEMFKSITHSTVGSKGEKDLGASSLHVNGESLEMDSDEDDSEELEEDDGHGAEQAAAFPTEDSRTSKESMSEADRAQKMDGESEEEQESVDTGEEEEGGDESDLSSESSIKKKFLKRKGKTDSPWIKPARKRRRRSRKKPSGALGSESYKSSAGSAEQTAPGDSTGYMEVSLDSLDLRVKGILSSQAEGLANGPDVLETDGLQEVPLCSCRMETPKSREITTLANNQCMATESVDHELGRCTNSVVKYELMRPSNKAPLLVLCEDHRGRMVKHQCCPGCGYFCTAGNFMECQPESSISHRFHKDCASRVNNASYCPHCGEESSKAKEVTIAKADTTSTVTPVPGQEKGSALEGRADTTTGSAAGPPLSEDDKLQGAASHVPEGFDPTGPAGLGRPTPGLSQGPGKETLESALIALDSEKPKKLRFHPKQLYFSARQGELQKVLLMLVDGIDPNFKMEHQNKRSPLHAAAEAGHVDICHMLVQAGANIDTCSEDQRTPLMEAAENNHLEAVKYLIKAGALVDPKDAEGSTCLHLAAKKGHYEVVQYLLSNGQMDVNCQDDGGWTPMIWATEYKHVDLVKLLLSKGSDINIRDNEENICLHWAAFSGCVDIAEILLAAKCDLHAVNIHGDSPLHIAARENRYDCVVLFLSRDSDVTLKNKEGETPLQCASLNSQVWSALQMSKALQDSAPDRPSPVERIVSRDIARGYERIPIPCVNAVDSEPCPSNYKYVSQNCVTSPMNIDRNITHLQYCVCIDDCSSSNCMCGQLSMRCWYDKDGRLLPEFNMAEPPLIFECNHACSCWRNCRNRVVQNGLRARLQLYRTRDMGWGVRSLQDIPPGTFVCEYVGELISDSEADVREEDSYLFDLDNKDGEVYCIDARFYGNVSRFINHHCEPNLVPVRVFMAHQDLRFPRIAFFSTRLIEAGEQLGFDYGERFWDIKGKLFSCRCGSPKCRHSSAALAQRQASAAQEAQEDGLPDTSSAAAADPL

[6] = molecular target: SUV39H2 (Homo sapiens, UniProt Q9H5I1)
Chain of SUV39H2 (Q9H5I1 48-410): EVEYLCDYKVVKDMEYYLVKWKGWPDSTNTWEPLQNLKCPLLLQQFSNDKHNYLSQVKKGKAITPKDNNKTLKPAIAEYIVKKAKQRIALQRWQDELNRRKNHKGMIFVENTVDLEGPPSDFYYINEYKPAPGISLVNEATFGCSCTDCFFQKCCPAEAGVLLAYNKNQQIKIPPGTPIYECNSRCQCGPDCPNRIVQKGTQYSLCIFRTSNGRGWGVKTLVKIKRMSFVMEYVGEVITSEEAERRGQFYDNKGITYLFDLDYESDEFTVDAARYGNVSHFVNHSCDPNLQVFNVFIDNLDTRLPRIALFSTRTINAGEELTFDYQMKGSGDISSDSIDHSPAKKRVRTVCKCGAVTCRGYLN

[7] = molecular target: T3, SETD2 (Homo sapiens, UniProt Q9BYW2)
T3 sequence (Q9BYW2 1434-1711): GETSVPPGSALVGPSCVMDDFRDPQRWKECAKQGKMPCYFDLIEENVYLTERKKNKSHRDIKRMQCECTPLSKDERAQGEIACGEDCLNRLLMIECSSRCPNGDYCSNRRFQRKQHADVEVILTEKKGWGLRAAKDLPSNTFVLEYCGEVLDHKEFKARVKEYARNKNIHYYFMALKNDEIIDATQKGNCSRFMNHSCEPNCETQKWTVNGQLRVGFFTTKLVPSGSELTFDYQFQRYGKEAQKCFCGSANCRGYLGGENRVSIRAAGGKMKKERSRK

[8] = molecular target: T4, SET7/9 (Homo sapiens, UniProt Q8WTS6)
T4 construct: gene SETD7
T4 sequence (Q8WTS6 1-366): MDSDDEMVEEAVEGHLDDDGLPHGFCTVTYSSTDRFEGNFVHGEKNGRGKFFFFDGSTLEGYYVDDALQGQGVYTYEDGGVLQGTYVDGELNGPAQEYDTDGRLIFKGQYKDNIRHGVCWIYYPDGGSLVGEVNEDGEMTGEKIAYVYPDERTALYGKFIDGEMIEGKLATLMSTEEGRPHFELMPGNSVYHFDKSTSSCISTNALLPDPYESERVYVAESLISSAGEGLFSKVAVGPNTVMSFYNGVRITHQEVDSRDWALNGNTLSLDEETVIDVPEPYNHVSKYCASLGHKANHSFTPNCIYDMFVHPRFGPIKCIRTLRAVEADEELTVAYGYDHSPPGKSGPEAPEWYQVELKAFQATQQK

[9] = molecular target: MLL4 Complex (Homo sapiens, UniProt Q9UMN6); parameters: gene KMT2B
Chain of MLL4 Complex (Q9UMN6 whole entry, looked up, one chain of several): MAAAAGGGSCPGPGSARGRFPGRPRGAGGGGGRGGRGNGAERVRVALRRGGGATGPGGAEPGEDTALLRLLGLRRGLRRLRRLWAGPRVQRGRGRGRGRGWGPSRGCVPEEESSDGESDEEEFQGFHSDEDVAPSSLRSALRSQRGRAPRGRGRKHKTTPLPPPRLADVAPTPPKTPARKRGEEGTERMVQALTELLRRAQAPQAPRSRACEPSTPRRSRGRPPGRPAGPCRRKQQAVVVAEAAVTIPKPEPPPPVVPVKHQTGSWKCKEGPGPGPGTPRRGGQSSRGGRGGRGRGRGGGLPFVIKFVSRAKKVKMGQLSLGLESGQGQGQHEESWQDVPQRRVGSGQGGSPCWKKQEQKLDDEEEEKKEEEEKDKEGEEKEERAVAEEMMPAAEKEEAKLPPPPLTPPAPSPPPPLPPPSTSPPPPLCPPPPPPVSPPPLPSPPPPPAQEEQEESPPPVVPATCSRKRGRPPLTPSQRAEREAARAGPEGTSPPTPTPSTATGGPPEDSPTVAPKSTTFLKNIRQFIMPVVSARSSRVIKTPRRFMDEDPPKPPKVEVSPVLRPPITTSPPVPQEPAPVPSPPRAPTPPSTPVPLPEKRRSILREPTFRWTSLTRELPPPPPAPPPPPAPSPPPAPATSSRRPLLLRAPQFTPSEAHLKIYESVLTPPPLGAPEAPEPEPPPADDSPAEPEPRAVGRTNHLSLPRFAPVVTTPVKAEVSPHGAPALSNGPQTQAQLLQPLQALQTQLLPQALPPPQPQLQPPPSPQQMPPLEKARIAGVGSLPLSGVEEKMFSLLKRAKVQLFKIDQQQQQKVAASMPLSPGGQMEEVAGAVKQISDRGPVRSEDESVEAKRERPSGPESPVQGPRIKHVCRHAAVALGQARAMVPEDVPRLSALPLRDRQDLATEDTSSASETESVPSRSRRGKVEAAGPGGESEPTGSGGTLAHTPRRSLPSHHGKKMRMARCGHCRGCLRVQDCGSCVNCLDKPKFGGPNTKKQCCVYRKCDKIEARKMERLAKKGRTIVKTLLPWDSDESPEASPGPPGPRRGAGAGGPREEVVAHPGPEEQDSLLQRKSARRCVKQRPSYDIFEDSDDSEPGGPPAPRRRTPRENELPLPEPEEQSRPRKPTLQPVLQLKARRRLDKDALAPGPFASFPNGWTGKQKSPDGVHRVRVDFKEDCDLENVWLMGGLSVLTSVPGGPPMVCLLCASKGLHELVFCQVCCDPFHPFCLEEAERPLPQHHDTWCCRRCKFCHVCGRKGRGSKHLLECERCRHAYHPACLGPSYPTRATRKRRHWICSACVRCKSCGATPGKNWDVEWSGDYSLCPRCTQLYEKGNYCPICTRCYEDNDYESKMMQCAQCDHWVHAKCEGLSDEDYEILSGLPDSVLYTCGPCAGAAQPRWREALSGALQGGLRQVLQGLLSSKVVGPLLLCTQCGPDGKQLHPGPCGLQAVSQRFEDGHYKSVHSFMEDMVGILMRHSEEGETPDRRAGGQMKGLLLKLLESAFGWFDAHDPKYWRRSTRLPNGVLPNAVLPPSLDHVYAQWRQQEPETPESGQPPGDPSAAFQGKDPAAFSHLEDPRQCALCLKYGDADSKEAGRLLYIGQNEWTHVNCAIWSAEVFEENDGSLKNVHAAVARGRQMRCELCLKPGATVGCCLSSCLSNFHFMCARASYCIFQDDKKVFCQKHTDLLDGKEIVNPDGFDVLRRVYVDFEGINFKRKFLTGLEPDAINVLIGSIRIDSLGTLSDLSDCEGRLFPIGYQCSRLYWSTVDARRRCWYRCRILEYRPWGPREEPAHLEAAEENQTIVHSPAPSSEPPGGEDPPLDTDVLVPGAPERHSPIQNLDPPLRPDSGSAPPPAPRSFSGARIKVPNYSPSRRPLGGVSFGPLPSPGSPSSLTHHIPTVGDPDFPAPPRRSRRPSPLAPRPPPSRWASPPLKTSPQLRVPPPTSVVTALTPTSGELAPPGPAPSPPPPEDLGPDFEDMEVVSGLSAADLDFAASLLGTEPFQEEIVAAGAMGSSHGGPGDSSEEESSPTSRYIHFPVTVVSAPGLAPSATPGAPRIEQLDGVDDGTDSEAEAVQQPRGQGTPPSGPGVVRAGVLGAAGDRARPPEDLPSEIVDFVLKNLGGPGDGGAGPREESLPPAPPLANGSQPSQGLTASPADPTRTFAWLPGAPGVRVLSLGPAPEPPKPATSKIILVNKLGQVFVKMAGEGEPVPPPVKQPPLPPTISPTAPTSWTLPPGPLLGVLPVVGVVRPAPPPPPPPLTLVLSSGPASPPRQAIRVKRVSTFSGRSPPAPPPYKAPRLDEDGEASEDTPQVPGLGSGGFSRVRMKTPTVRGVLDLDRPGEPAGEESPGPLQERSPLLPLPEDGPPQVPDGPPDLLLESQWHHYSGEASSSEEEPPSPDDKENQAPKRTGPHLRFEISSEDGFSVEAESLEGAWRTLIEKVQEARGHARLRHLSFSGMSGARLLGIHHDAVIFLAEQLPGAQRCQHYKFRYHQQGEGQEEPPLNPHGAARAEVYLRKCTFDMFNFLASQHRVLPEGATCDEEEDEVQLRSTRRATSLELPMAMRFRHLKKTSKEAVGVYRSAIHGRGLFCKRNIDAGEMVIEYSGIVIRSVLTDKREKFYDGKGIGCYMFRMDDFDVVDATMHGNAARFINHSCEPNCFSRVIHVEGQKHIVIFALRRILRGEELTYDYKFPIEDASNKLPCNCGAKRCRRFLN

[10] = molecular target: MLL1 Complex (Homo sapiens, UniProt Q03164); parameters: gene KMT2A
[11] = molecular target: MLL2 Complex (Homo sapiens, UniProt O14686); parameters: gene KMT2D
[12] = molecular target: MLL3 Complex (Homo sapiens, UniProt Q8NEZ4); parameters: gene KMT2C
[13] = molecular target: SET1b Complex (Homo sapiens, UniProt Q9UPS6); parameters: gene SETD1B

Chain of PRMT3 (O60678 2-531): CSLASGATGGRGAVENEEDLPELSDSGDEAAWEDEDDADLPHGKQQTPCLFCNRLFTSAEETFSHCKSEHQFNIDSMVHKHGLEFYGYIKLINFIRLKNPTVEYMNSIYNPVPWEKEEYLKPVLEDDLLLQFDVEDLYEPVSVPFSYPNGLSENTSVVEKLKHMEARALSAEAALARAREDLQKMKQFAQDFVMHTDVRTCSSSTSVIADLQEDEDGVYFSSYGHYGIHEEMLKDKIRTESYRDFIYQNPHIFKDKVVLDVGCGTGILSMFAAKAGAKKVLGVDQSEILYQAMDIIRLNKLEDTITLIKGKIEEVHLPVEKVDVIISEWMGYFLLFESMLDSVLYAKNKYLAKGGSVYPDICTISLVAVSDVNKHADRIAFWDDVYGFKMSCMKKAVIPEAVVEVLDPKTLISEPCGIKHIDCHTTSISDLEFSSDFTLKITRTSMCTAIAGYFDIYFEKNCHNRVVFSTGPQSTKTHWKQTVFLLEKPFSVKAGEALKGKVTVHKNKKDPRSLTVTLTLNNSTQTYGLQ
Chain of DNMT3a (Q9Y6K1 whole entry, looked up): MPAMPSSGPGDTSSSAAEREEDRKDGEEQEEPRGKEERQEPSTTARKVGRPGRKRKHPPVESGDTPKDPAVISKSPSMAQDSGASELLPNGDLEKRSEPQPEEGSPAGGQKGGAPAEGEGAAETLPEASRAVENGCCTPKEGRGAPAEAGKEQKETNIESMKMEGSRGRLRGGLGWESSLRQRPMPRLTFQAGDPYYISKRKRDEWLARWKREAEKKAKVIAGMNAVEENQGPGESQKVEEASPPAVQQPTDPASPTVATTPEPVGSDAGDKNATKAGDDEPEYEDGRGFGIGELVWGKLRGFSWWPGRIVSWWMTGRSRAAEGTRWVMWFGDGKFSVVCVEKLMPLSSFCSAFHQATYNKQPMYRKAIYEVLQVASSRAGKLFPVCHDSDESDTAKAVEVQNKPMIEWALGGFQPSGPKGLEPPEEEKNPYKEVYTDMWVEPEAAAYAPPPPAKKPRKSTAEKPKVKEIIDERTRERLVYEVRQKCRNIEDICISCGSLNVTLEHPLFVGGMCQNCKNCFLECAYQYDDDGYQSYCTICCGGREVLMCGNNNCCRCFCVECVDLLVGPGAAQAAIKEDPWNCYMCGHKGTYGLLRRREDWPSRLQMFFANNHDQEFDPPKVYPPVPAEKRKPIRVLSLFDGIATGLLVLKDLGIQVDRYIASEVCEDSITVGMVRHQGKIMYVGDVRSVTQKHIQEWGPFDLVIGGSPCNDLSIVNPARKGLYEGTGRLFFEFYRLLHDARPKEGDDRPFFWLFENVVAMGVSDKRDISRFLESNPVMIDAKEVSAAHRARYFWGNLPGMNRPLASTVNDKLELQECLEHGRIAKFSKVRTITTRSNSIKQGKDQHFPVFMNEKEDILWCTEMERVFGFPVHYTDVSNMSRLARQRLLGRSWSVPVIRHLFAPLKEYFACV

- IC50 [1]: 0.12 µM
- IC50 [2]: 2.3 µM
- IC50 [3]: 0.012 µM
- IC50 [4]: 37 µM
- IC50 [5]: 0.53 µM
- IC50 [6]: 55 µM
- IC50 [7]: 5.2 µM
- IC50 [8]: 83 µM
- IC50 [9]: 2.5 µM
- IC50 [10]: 0.55 µM
- IC50 [11]: 27 µM
- IC50 [12]: 57 µM
- IC50 [13]: 1.5 µM
SMILES: Nc1ncnc2c1ncn2[C@@H]1O[C@H](CSCC[C@H](N)C(=O)O)[C@@H](O)[C@H]1O [SAH]
